Article PMC10464297, “Reevaluation of bromodomain ligands targeting BAZ2A” (Protein Science : A Publication of the Protein Society, 2023)

Assays:
BAZ2A bromodomain [1] = molecular target: T1, BAZ2A bromodomain (Homo sapiens, UniProt Q9UIF9); experiment: AlphaScreen binding competition, BAZ2A bromodomain; settings: compound at 100 μM
T1 construct: BAZ2A and BAZ2B bromodomains were produced; made in house
T1 sequence (Q9UIF9 1793-1897 limits assumed): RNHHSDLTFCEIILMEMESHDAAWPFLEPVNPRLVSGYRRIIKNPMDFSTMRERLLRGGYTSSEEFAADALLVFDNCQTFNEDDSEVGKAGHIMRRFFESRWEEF
Source text: (§1) BAZ2A and BAZ2B bromodomains were produced and their activity evaluated by AlphaScreen as previously reported (Dalle Vedove et al., [2018]; Spiliotopoulos et al., [2017]). BAZ2A bromodomain was crystallized as detailed in an earlier work (Spiliotopoulos et al., [2017]). Diffraction data were collected at the Elettra Synchrotron Light Source (Trieste, Italy), XRD1 and XRD2 beamlines, and the European Synchrotron Radiation Facility (ESRF, Grenoble, France), ID30A‐1/MASSIF‐1 beamline. Data were processed and structures were solved as described elsewhere (Dalle Vedove et al., [2018]). Chemical synthesis of compounds UP39 and UZH23 has already been reported (Unzue et al., [2016]; Zhu et al., [2018]). A detailed description of cell culture methods and ITC protocol is provided in the Supporting Information.
(§2) Figure S3. AlphaScreen competition binding assay for compounds UP39 and UZH23. The specific binding to the acetylated peptide relative to the control DMSO (y-axis) is plotted against the corresponding compound concentration in µM in log10 scale (x-axis).
(§3) (1 picture or pasted object on this page, not shown here)

BAZ2B bromodomain = molecular target: T2, BAZ2B bromodomain (Homo sapiens, UniProt Q9UIF8); experiment: AlphaScreen binding competition, BAZ2B bromodomain; settings: compound at 100 μM
T2 construct: BAZ2A and BAZ2B bromodomains were produced; made in house
T2 sequence (Q9UIF8 2060-2164 limits assumed): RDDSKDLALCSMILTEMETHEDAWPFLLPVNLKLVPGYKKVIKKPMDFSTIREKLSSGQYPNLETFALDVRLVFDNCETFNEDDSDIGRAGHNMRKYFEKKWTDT
Source text: as §1, §2, §3

BAZ2A bromodomain [2] = molecular target: T1, BAZ2A bromodomain; experiment: Isothermal titration calorimetry (ITC) on BAZ2A; format: binding; settings: for Kd: 25°C, 0.25% DMSO, read-out: K D BAZ2A; for TΔS / ΔG / ΔH / N (sites): BAZ2A; for N (sites): one site model
Source text: It is worth noticing however that these values may be slightly overestimated. The presence of 0.25% DMSO in the ITC experiments leads to less favorable K D values as DMSO competes for binding to the conserved Asn (Lolli & Battistutta, [2013]; Navratilova et al., [2016]). […] Indeed, the change in sign of the entropic term observed for TP‐238 binding to BAZ2A (compared to BPTF and CECR2) closely resembles the effect reported for crotonyllysine binding to the TAF1 bromodomain (compared to Kac), also displacing an additional water molecule from the binding pocket (Flynn et al., [2015]). […]
Isothermal Titration Calorimetry
ITC experiments were performed using an MicroCal PEAQ-IT C microcalorimeter (Malvern Panalytical, UK) at 25°C with a stirring speed of 750 rpm in 20mM Tris pH 7. 8, 0. 2 M NaCl, 0. 2 mM TCEP and 0. 25% DMSO. For each experiment, one 0. 4 µl injection followed by eighteen 2 µl injections have been performed, with 150 seconds separating each injectio n. The inhibitors were tested at 70 µM in the cell with His -Baz2A in the syringe at 1 mM. A blank run with only the buffer was carried out (Suppl. Fig. S6). Data analysis was done with PE A Q-ITC Analysis software , fitting the curve with the ‘one site’ model.

BAZ2A bromodomain [3] = molecular target: T1, BAZ2A bromodomain; experiment: Screening by co‐crystallization with BAZ2A bromodomain; format: binding
Source text: as §1

CECR2 bromodomain = settings: ref Ycas et al., [2020]; read-out: K D CECR2; cited from earlier work
BRD9 = settings: ref Ycas et al., [2020]; read-out: K D BRD9; cited from earlier work
BPTF = settings: ref Ycas et al., [2020]; read-out: K D BPTF; cited from earlier work
PCAF = molecular target: PCAF; design: method as in Humphreys et al., [2017]; settings: ref Humphreys et al., [2017]; read-out: K D PCAF bromodomain; cited from earlier work
GCN5 = molecular target: GCN5; design: method as in Humphreys et al., [2017]; settings: ref Humphreys et al., [2017]; read-out: K D GCN5 bromodomain; cited from earlier work
BRPF1 = molecular target: BRPF1; design: method as in Humphreys et al., [2017]; settings: lower potency than on PCAF/GCN5; ref Humphreys et al., [2017]; read-out: potency on BRPF1 bromodomain; cited from earlier work
BRPF3 = molecular target: BRPF3; design: method as in Humphreys et al., [2017]; settings: lower potency than on PCAF/GCN5; ref Humphreys et al., [2017]; read-out: potency on BRPF3 bromodomain; cited from earlier work
BRD1 = molecular target: BRD1; design: method as in Humphreys et al., [2017]; settings: lower potency than on PCAF/GCN5; ref Humphreys et al., [2017]; read-out: potency on BRD1 bromodomain; cited from earlier work
[4] = tested on: first bromodomain of BRD4; design: method as in Hay et al., [2014]; Picaud et al., [2015]; settings: ref Hay et al., [2014]; Picaud et al., [2015]; cited from earlier work

Row | SMILES | % residual binding BAZ2A (100 μM) (BAZ2A bromodomain [1]) [%] | % residual binding BAZ2B (100 μM) (BAZ2B bromodomain) [%] | Kd (BAZ2A bromodomain [2]) [nM] | TΔS (BAZ2A bromodomain [2]) [kcal/mol] | ΔG (BAZ2A bromodomain [2]) [kcal/mol] | ΔH (BAZ2A bromodomain [2]) [kcal/mol] | N (sites) (BAZ2A bromodomain [2]) | located in BAZ2A Kac pocket by co‐crystallization (BAZ2A bromodomain [3]) | Kd (CECR2 bromodomain) [nM] | Kd (BRD9) [nM] | Kd (BPTF) [nM] | Kd (PCAF) [nM] | Kd (GCN5) [nM] | Kd (BRPF1) [nM] | Kd (BRPF3) [nM] | Kd (BRD1) [nM] | off‐target activity on the first bromodomain of BRD4 [4]
1 | CN(C)CCCOc1ccc(-c2cc(NCCCn3cccn3)nc(S(C)(=O)=O)n2)cc1 [TP‐238] | 81 ± 3 | 77 ± 2 | 108000 ± 6000 | 2.68 | -5.41 | -2.73 ± 0.07 | 1 | located in the BAZ2A Kac pocket | 10 | 1100 | 120 |  |  |  |  |  | 
2 | CN1C[C@H](Nc2cnn(C)c(=O)c2Br)C[C@H](c2ccccc2)C1 [GSK4027] | 77 ± 5 | 70 ± 3 | 165000 ± 8000 | -5.8 | -5.2 | -11.0 ± 0.3 | 1 | located in the BAZ2A Kac pocket |  |  |  | 1.4 | 1.4 | 100 to 150 | 100 to 150 | 100 to 150 | 
3 | CCC(=O)N1CCOc2c(cc(-c3ccc(OC)c(OC)c3)cc2OC[C@H]2CCCN(C)C2)C1 [I‐CBP112] | 98 ± 2 | 96 ± 1 |  |  |  |  |  | inability to act as BAZ2A inhibitors |  |  |  |  |  |  |  |  | weak off‐target activity
